Calls of active or inactive are those of the source. No cut-off for these calls is given here.
Columns and labels:
[1] = target: T1, Epidermal growth factor receptor (Homo sapiens, UniProt P00533)
[2] = system: Epidermal growth factor receptor (Homo sapiens), P00533 [L858R,T790M]; details: 10 uM
[3] = target: Epidermal growth factor receptor (Homo sapiens, UniProt P00533, L858R/T790M)
[4] = Antiproliferative activity against human HCC827 cells by MTS assay
[5] = target: T1, Epidermal growth factor receptor; assay: Inhibition of EGFR at 20 uM
[6] = target: T1, Epidermal growth factor receptor; details: 20 uM
[7] = system: HCC827; assay: Antitumor activity against human HCC827 cells xenografted in mouse assessed as reduction of tumor growth at 100 mg/kg, iv for 5 days a week measured after 2 weeks; type: functional, organism-based; design: dose 100 mg/kg
[8] = AUC (0 to infinity) in Sprague-Dawley rat at 5 mg/kg, iv; type: ADME, organism-based; design: time infinity, dose 5 mg/kg, route intravenous; details: plasma
[9] = system: Rattus norvegicus; assay: Half life in Sprague-Dawley rat at 5 mg/kg, iv; type: ADME, organism-based; design: dose 5 mg/kg, route intravenous; details: in vivo
[10] = system: HCC827; assay: Antitumor activity against human HCC827 cells xenografted in mouse assessed as reduction of tumor growth at 5 to 15 mg/kg, iv for 5 days a week measured after 2 weeks; type: functional, organism-based

Chain of Epidermal growth factor receptor (Homo sapiens, UniProt P00533, L858R/T790M) (P00533 25-1210 T790M/L858R limits assumed): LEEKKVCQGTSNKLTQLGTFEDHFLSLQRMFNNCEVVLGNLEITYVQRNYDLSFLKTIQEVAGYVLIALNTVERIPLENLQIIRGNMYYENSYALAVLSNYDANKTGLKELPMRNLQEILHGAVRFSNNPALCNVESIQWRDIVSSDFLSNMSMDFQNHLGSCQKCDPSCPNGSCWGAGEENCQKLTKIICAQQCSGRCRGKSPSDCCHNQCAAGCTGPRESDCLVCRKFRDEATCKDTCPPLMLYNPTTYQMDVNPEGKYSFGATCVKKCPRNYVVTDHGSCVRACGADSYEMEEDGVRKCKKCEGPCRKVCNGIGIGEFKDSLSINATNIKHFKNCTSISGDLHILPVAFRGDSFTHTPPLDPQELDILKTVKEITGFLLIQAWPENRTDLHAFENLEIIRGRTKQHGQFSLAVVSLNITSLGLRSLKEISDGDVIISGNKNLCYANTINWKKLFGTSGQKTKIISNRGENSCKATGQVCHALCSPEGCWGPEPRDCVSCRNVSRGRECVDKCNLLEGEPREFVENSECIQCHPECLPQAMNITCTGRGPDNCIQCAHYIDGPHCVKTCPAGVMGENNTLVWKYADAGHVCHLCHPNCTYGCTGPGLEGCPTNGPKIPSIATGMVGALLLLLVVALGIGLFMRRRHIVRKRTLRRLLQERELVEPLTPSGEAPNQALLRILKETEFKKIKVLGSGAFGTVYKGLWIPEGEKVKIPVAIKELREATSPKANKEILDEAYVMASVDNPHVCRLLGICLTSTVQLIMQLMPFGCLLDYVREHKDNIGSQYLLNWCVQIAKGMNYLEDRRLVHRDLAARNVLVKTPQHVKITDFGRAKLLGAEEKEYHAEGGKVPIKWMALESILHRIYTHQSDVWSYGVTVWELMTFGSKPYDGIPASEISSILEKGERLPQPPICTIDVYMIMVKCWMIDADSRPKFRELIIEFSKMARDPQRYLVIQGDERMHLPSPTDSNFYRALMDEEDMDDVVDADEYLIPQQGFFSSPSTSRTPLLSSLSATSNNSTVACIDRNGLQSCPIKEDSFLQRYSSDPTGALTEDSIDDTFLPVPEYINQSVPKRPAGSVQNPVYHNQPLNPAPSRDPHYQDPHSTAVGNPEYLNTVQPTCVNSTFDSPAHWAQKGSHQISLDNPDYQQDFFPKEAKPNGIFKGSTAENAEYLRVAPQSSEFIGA
T1 sequence (P00533 whole entry): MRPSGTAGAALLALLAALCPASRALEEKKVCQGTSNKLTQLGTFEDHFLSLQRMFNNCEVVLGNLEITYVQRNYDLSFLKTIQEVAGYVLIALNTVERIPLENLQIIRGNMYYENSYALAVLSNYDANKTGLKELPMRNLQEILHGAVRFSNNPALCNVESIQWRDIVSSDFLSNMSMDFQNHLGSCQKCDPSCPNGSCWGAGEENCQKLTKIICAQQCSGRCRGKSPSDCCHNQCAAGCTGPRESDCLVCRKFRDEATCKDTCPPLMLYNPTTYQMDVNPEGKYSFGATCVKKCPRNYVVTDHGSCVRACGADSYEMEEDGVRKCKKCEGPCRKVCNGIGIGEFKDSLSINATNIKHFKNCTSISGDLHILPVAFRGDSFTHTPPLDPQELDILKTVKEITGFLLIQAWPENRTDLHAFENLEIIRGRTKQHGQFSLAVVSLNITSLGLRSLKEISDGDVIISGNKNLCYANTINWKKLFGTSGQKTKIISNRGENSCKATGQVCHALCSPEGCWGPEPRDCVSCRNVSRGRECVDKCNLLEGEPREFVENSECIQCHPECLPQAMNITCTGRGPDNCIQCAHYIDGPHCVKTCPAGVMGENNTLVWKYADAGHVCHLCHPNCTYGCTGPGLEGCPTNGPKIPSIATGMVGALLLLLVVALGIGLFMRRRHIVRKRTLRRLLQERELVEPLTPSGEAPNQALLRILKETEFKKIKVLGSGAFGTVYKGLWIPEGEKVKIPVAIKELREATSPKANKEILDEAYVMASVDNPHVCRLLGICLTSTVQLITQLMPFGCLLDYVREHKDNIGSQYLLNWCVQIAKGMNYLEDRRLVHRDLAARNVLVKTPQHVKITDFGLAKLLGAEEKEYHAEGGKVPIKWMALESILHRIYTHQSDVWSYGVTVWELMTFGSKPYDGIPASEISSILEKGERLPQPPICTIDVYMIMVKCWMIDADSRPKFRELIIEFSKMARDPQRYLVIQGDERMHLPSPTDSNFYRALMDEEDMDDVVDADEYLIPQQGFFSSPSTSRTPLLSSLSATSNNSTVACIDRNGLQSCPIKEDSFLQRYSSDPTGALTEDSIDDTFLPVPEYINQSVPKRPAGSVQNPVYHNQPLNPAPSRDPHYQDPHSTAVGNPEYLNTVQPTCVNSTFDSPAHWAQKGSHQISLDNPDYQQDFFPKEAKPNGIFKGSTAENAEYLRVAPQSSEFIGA
Chain of Epidermal growth factor receptor (Homo sapiens), P00533 [L858R,T790M] (P00533 whole entry T790M/L858R, looked up): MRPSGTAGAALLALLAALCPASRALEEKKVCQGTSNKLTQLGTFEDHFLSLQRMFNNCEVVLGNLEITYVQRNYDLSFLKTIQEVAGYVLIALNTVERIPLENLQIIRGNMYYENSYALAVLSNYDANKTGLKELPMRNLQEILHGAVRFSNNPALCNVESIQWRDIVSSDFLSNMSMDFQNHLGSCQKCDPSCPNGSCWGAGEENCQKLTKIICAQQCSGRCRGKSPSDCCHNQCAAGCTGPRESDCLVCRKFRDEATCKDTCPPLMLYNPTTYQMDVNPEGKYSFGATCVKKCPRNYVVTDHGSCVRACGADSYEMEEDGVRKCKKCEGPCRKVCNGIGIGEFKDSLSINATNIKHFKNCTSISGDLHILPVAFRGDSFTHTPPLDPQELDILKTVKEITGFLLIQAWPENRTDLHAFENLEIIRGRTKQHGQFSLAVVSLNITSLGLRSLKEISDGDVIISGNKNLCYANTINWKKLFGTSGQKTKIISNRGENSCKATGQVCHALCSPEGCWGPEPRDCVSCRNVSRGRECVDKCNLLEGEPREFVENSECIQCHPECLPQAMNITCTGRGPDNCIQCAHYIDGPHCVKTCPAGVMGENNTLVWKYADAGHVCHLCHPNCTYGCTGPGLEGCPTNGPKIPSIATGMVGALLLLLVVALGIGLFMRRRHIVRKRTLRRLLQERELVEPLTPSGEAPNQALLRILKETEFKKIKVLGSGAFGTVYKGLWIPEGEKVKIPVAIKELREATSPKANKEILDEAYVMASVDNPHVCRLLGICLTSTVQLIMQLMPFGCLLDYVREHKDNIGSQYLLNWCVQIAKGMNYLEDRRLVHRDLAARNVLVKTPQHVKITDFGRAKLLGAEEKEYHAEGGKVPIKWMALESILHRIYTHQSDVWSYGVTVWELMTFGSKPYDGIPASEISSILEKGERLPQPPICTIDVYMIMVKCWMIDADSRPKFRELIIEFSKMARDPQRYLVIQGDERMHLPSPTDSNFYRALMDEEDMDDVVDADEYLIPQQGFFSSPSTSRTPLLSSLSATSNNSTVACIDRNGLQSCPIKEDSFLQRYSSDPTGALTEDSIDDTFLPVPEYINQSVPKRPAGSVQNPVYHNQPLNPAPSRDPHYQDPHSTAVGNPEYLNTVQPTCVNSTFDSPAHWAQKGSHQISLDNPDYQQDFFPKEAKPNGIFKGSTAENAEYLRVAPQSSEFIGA

IC50 [1]	inhibition [2]	IC50 [3]	SMILES	IC50 [4]	other results
3500 nM	< 50%	–	O=C(/C=C/c1ccccc1)N1CCc2c(sc3ncnc(N[C@H](CO)c4ccccc4)c23)C1	–	–
12 nM	–	596 nM	C[C@@H](Nc1ncnc2sc3c(c12)CCN(C(=O)/C=C/CN(C)C)C3)c1ccccc1	2 nM	–
–	< 50%	–	OC[C@@H](Nc1ncnc2sc3c(c12)CCNC3)c1ccccc1	–	IC50 [5]: > 20000 nM
> 3240 nM	–	–	C[C@@H](Nc1ncnc2sc3c(c12)CCCC3)c1ccccc1	–	–
–	–	–	COc1ccc(CNc2ncnc3sc4c(c23)CCCC4)cc1	–	inhibition [6]: 1.1%
91 nM	–	2480 nM	C=CS(=O)(=O)N1CCc2c(sc3ncnc(N[C@H](CO)c4ccccc4)c23)C1	273 nM	–
720 nM	< 50%	–	OC[C@@H](Nc1ncnc2sc3c(c12)CCCC3)c1ccccc1	198 nM	–
21 nM	–	1400 nM	O=C(/C=C/CN1CCOCC1)N1CCc2c(sc3ncnc(NC(CO)c4ccccc4)c23)C1 (single isomer, unassigned)	4 nM	–
–	–	–	OC[C@@H](Nc1ncnc2oc(-c3ccccc3)c(-c3ccccc3)c12)c1ccccc1	518 nM	–
–	–	–	OC[C@H](Nc1ncnc2sc3c(c12)CCCC3)c1ccccc1	–	IC50 [5]: > 20000 nM
–	< 50%	–	CCC(=O)N1CCc2c(sc3ncnc(N[C@H](CO)c4ccccc4)c23)C1	–	IC50 [5]: > 20000 nM
–	–	–	Fc1ccc(CNc2ncnc3sc4c(c23)CCCC4)cc1	–	inhibition [6]: 52.7%
149 nM	–	4110 nM	CN(C)C/C=C/C(=O)N1CCc2c(sc3ncnc(NC(CO)Cc4ccccc4)c23)C1 (single isomer, unassigned)	32 nM	–
–	< 50%	–	c1ccc(CNc2ncnc3sc4c(c23)CCCC4)cc1	> 10000 nM	inhibition [6]: 76.9%
–	< 50%	–	CN(C)C/C=C/C(=O)N1CCc2c(sc3ncnc(N[C@@H](CO)c4ccccc4)c23)C1	–	IC50 [5]: > 20000 nM
–	–	–	COc1cc2ncnc(Nc3ccc(F)c(Cl)c3)c2cc1OCCCN1CCOCC1	–	Activity [7]: Active
9 nM	–	930 nM	CCN(CC)C/C=C/C(=O)N1CCc2c(sc3ncnc(NC(CO)c4ccccc4)c23)C1 (single isomer, unassigned)	8 nM	–
46 nM	–	2200 nM	C=CC(=O)N1CCc2c(sc3ncnc(N[C@H](CC)c4ccccc4)c23)C1	24 nM	–
–	–	–	OCCNc1ncnc2sc3c(c12)CCCC3	–	IC50 [5]: > 20000 nM
1090 nM	–	–	OC[C@@H](Nc1ncnc2sc3c(c12)CCC3)c1ccccc1	324 nM	–
89 nM	< 50%	–	CN1CCN(C/C=C/C(=O)N2CCc3c(sc4ncnc(N[C@H](CO)c5ccccc5)c34)C2)CC1	38 nM	–
1270 nM	< 50%	> 10000 nM	CC#CC(=O)N1CCc2c(sc3ncnc(N[C@H](CO)c4ccccc4)c23)C1	–	–
20 nM	–	739 nM	C=CC(=O)N1CCc2c(sc3ncnc(N[C@H](C)c4ccccc4)c23)C1	19 nM	–
–	–	–	c1ccc(CNc2ncnc3sc4c(c23)CCC4)cc1	–	inhibition [6]: 69.1%
–	–	–	c1ccc(CCNc2ncnc3sc4c(c23)CCCC4)cc1	–	inhibition [6]: 44.3%
70 nM	–	305 nM	CN(C)C/C=C/C(=O)N1CCc2c(sc3ncnc(N[C@H](CO)c4ccccc4)c23)C1	2 nM	AUC(0-inf) [8]: 337 ng·h/mL; t1/2 [9]: 1.4 h; Activity [10]: Active
3060 nM	< 50%	–	C=CC(=O)N1CCc2c(sc3ncnc(N[C@@H](CO)c4ccccc4)c23)C1	–	–
4880 nM	< 50%	–	CN(C)C/C=C/C(=O)N1CCc2c(sc3ncnc(NCCO)c23)C1	–	–
8 nM	–	100 nM	C=CC(=O)N1CCc2c(sc3ncnc(N[C@H](CO)c4ccccc4)c23)C1	3 nM	–
